Experimental data: the supplement of paper PMC10307832

How the values were obtained:
Assay in all cases: relative viability (nuclei count vs DMSO), 5 days (fraction); higher = more cells survive
Axitinib + Foretinib = compound: CNC(=O)c1ccccc1Sc1ccc2c(/C=C/c3ccccn3)n[nH]c2c1 [Axitinib] + COc1cc2c(Oc3ccc(NC(=O)C4(C(=O)Nc5ccc(F)cc5)CC4)cc3F)ccnc2cc1OCCCN1CCOCC1 [Foretinib] (partner 0.25 µM)
In short: (§1)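 For relative viability, nuclei counts in treated wells were divided by those in vehicle wells. Lung cancer cell lines had been pin-tool dosed in 1536-well plates the day after seeding and cultured for 5 days, then fixed and stained in one step (final 0.05% Triton X-100, 1% formaldehyde, 1 ug/ml Hoechst) and imaged at 4×. Doses were one drug alone or a fixed anchor-drug dose plus five library-drug doses (not always all listed) in √10 steps, and values are duplicate-plate medians.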

Axitinib + Pemetrexed = compound: CNC(=O)c1ccccc1Sc1ccc2c(/C=C/c3ccccn3)n[nH]c2c1 [Axitinib] + Nc1nc2[nH]cc(CCc3ccc(C(=O)N[C@@H](CCC(=O)O)C(=O)O)cc3)c2c(=O)[nH]1 [Pemetrexed] (partner 0.2 µM)
In short: as §1

Bemcentinib + Dasatinib = compound: Nc1nc(Nc2ccc3c(c2)CC[C@@H](N2CCCC2)CC3)nn1-c1cc2c(nn1)-c1ccccc1CCC2 [Bemcentinib] + Cc1nc(Nc2ncc(C(=O)Nc3c(C)cccc3Cl)s2)cc(N2CCN(CCO)CC2)n1 [Dasatinib] (partner 0.075 µM)
In short: as §1

Bemcentinib + Pemetrexed = compound: Nc1nc(Nc2ccc3c(c2)CC[C@@H](N2CCCC2)CC3)nn1-c1cc2c(nn1)-c1ccccc1CCC2 [Bemcentinib] + Nc1nc2[nH]cc(CCc3ccc(C(=O)N[C@@H](CCC(=O)O)C(=O)O)cc3)c2c(=O)[nH]1 [Pemetrexed] (partner 0.2 µM)
In short: as §1

Cell Line | relative viability (Axitinib + Foretinib; first compound 0.005 µM) | relative viability (Axitinib + Foretinib; first compound 0.01581 µM) | relative viability (Axitinib + Foretinib; first compound 0.05 µM) | relative viability (Axitinib + Foretinib; first compound 0.1581 µM) | relative viability (Axitinib + Foretinib; first compound 0.5 µM) | relative viability (Axitinib + Pemetrexed; first compound 0.005 µM) | relative viability (Axitinib + Pemetrexed; first compound 0.01581 µM) | relative viability (Axitinib + Pemetrexed; first compound 0.05 µM) | relative viability (Axitinib + Pemetrexed; first compound 0.1581 µM) | relative viability (Axitinib + Pemetrexed; first compound 0.5 µM) | relative viability (Bemcentinib + Dasatinib; first compound 0.04 µM) | relative viability (Bemcentinib + Dasatinib; first compound 0.1265 µM) | relative viability (Bemcentinib + Dasatinib; first compound 0.4 µM) | relative viability (Bemcentinib + Dasatinib; first compound 1.265 µM) | relative viability (Bemcentinib + Dasatinib; first compound 4 µM) | relative viability (Bemcentinib + Pemetrexed; first compound 0.04 µM) | relative viability (Bemcentinib + Pemetrexed; first compound 0.1265 µM) | relative viability (Bemcentinib + Pemetrexed; first compound 0.4 µM) | relative viability (Bemcentinib + Pemetrexed; first compound 1.265 µM) | relative viability (Bemcentinib + Pemetrexed; first compound 4 µM)
EBC-1 | 0.104 | 0.116 | 0.0984 | 0.0972 | 0.122 | – | – | – | – | – | – | – | – | – | – | – | – | – | – | –
EKVX | 0.861 | 0.786 | 0.349 | 0.778 | 0.824 | 0.428 | 0.376 | 0.457 | 0.417 | 0.398 | 0.556 | 0.528 | 0.592 | 0.628 | 0.588 | 0.355 | 0.42 | 0.422 | 0.401 | 0.333
EMC-BAC-2 | 1.05 | 1.08 | 1.03 | 1.08 | 1.09 | 0.476 | 0.464 | 0.456 | 0.461 | 0.518 | 0.349 | 0.323 | 0.342 | 0.29 | 0.336 | 0.442 | 0.475 | 0.48 | 0.416 | 0.419
EPLC-272H | 0.639 | 0.745 | 0.579 | 0.735 | 0.637 | 0.333 | 0.341 | 0.302 | 0.381 | 0.336 | 0.285 | 0.389 | 0.332 | 0.393 | 0.364 | 0.313 | 0.337 | 0.371 | 0.319 | 0.291
H3255 | 1.03 | 0.61 | 0.848 | 0.859 | 0.801 | 0.531 | 0.527 | 0.568 | 0.568 | 0.578 | 0.308 | 0.396 | 0.315 | 0.332 | 0.346 | 0.533 | 0.616 | 0.585 | 0.624 | 0.517
HARA | 0.768 | 0.907 | 0.945 | 0.821 | 0.919 | 0.231 | 0.265 | 0.309 | 0.26 | 0.258 | 0.124 | 0.27 | 0.253 | 0.221 | 0.21 | 0.236 | 0.243 | 0.241 | 0.245 | 0.196
HCC-15 | 1.1 | 1.11 | 0.958 | 0.99 | 0.999 | 0.211 | 0.228 | 0.23 | 0.22 | 0.211 | 0.628 | 0.696 | 0.708 | 0.669 | 0.732 | 0.231 | 0.219 | 0.226 | 0.218 | 0.221
HCC-44 | – | – | – | – | – | 0.625 | 0.631 | 0.626 | 0.624 | 0.676 | – | – | – | – | – | 0.676 | 0.665 | 0.684 | 0.723 | 0.679
HCC-78 | 0.582 | 0.536 | 0.512 | 0.6 | 0.548 | 0.919 | 0.941 | 0.933 | 0.974 | 0.962 | 0.403 | 0.201 | 0.433 | – | 0.363 | 0.923 | 1.01 | 0.942 | 0.895 | 0.95
